Experiments:
LSD1 = LSD1 (Homo sapiens, UniProt O60341); assay: LSD1 histone demethylase assay (LSD1 Inhibitor Screening Assay Kit); assay type: biochemical
Procedure: Briefly, test compounds were diluted to 20× the desired test concentration in 100% DMSO and 2.5 μL of the diluted drug sample was added to a black 384-well plate. The LSD1 enzyme stock was diluted 17-fold with assay buffer and 40 μM of the diluted LSD1 enzyme was added to the appropriate wells.
(§1) IC50 values are determined using GraphPad Prism 5 software. The data were entered as an X-Y plot into the software as percent inhibition for each concentration of the drug. The concentration values of the drug were log transformed and the nonlinear regression was carried out using the “sigmoidal dose-response (variable slope)” option within the GraphPad software to model the data and calculate IC50 values.

T-47D cells = assay: Cell viability assay (ATPlite), T-47D; assay type: cell-based; settings: Homo sapiens, T47D, 96 hours, read-out: Cell Growth, IC50
Procedure: Cells were cultured according to the procedures provided. […] Cells were cultured at 37° C. and 5% CO2.
Cell viability was determined using ATPlite™ Luminescence Assay System (PerkinElmer Inc., Waltham, Mass.) using the various cell-lines described above and in Table 4. Briefly, cells were seeded in 96-well plates and then treated with different concentrations of inhibitor (0.1% final DMSO concentration). After 96-hours of incubation, ATPlite detection reagent was added directly to the culture well. Luminescence was read 5 minutes later on an Envision microplate reader.
as §1

heme oxygenase 1 (HMOX1) = assay: Expression array experiments (transcriptional changes); assay type: cell-based; settings: multiple cell lines; data not shown

Compound: CNS(=O)(=O)c1cccc(C(=O)N/N=C(\C)c2cc(Cl)ccc2O)c1 [Compound 29, (E)-3-(2-(1-(5-chloro-2-hydroxyphenyl)ethylidene)hydrazinecarbonyl)-N-methylbenzenesulfonamide]
- IC50 (LSD1): 8.7 nM

Compound: C/C(=N\NC(=O)c1cccc(S(=O)(=O)N2CCC(C)CC2)c1)c1cc(Cl)ccc1O [Compound 26, (E)-N′-(1-(5-chloro-2-hydroxyphenyl)ethylidene)-3-((4-methylpiperidin-1-yl)sulfonyl)benzohydrazide]
- IC50 (LSD1): 9.5 nM

Compound: C/C(=N\NC(=O)c1cccc(S(=O)(=O)N2CCN(C)CC2)c1)c1cc(Cl)ccc1O [Compound 35, (E)-N′-(1-(5-chloro-2-hydroxyphenyl)ethylidene)-3-((4-methylpiperazin-1-yl)sulfonyl)benzohydrazide]
- IC50 (LSD1): < 10 nM

Compound: O=C(c1cccc(S(=O)(=O)N2CCOCC2)c1)n1ccc(-c2cc(Cl)ccc2O)n1 [Compound 38, (3-(5-chloro-2-hydroxyphenyl)-1H-pyrazol-1-yl)(3-(morpholinosulfonyl)phenyl)methanone]
- IC50 (LSD1): > 3000 nM

Compound: C/C(=N\NC(=O)c1cccc(S(=O)(=O)N2CCOCC2)c1)c1cccc(Cl)c1F [Compound 13, (E)-N′-(1-(3-chloro-2-fluorophenyl)ethylidene)-3-(morpholinosulfonyl)benzohydrazide]
- IC50 (T-47D cells): > 10000 nM

Compound: C/C(=N\NC(=O)c1cccc(S(=O)(=O)N2CCOCC2)c1)c1cc(Cl)ccc1O [Compound 12, (E)-N′-(1-(5-chloro-2-hydroxyphenyl)ethylidene)-3-(morpholinosulfonyl)benzohydrazide]
- transcriptional change of HMOX1 (heme oxygenase 1 (HMOX1)): one of the most consistently up-regulated genes

— patent publication US9266838B2, “Substituted (E)-N′-(1-phenylethylidene)benzohydrazide analogs as histone demethylase inhibitors” (University of Utah Research Foundation, priority 2011, dated 2016)
